This is an account of results in US20090325858A1, “Reduction of Zinc-Induced Neurotoxic Injury By Blockade of Nitric Oxide Synthesis” (ANDRO DIAGNOSTICS, INC., priority 2003, published 2009).

Experiment [1] addresses Zn^2+-bound CA (bovine CA I). The following applies: cited from earlier work.
The next experiment concerns zinc-positive neurons. Briefly: Pilocarpine-induced seizures, number of zinc-positive neurons. In kind it is in vivo.
A further experiment has as its system hippocampal slice. Briefly: Zn2+ release from hippocampal slice in oxygen-glucose deprivation (OGD) and reperfusion, Newport Green. Type of experiment: cell-based, rat. The settings on record: slices pretreated, 1 mM. The text has this: In the in vitro model, the ischemia was translated to the hippocampal slice using the established oxygen-glucose deprivation (OGD) paradigm. Zinc in the extracellular fluids of the slice was monitored using membrane impermeable Newport Green as a sensor for Zn^2+ in the extracellular fluid as described herein. The release results paralleled the results obtained in vivo from the rabbits. Zinc was released into the extracellular fluid at the onset of OGD, then even more release was observed during reperfusion (FIG. 8).

Experiment [2] has as its system zinc-positive neurons in hilus and hippocampal cortex (CA3). Briefly: Traumatic brain injury plus hypoperfusion, number of zinc-stained neurons. In kind it is in vivo, rat. The settings on record: for sparing in the number of zinc-injured (zinc-positive) neurons: trauma plus hypoperfusion. The text has this: Male Sprague-Dawley rats weighing 350-400 g were anesthetized with isoflurane in an anesthetic chamber, intubated, and mechanically ventilated with 1.5-2.0% isoflurane in O2:room air (70:30) using a volume ventilator (EDCO Scientific, Chapel Hill, N.C.). Polyethylene cannulae were placed in both femoral arteries and one femoral vein for arterial pressure monitoring and hemorrhage and for drug infusion, respectively. Rectal and temporalis muscle temperatures were monitored using telethermometers (Yellow Springs Instruments, Yellow Springs, Ohio). Rectal temperature was maintained using a thermostatically controlled water blanket (Gaymar, Orchard Park, N.Y.).
Rats were prepared for parasagittal fluid-percussion traumatic brain injury (TBI) and for laser Doppler flowometry as described below. Intracranial pressure (ICP) was monitored continuously using a Camino probe (V420, Camino Laboratories, San Diego, Calif.) placed in a lateral ventricle through a small craniotomy placed posterior and lateral to the fluid percussion injury site. Isoflurane was lowered to 1.5%; the rats were connected to the trauma device, and subjected to moderate or severe traumatic brain injury.
After traumatic brain injury (or sham-TBI) blood was withdrawn from a catheter in a femoral artery to reduce MAP to 60 mmHg. Mean arterial pressure was maintained at 60 mmHg for 45 minutes during which time cerebral blood flow and ICP were measured. […] Post-resuscitation measurements were then performed. An arterial blood sample was withdrawn with each measurement series to determine PaCO2, PaO2, pH and hemoglobin concentration or hematocrit.
Fluid-percussion traumatic brain injury is a clinically relevant model that has been used in many studies of traumatic brain injury in cats, rats, and pigs (79, 82). The trauma device consists of a Plexiglas cylinder 60 cm long and 4.5 cm in diameter. One end of the device is connected to a hollow metal cylinder housing a pressure transducer (Statham PA856-100) and the other end is closed by a Plexiglas piston mounted on O-rings.
The piston is struck by a 4.8-kg steel pendulum dropped from a variable height, which determines the intensity of injury. The pressure pulse is recorded on a storage oscilloscope triggered photoelectrically by the descent of the pendulum. Sham-injured rats were connected to the trauma device but were not injured.
The effects of a moderate (2.0 atm) or severe (3.0 atm) levels of injury were studied. Moderate injury (2.1 atm) is associated with 10% mortality, reductions in EEG amplitude for 10 to 15 min, brief (<5 min) suppression of reflexes (corneal, pinna, paw flexion to pinch, righting), and return of spontaneous locomotion within 10 min. […]

A further experiment deals with hippocampal brain slice. The experiment in a line: Zn2+ release into extracellular fluid of acute hippocampal brain slices, EnZin fluorescence. The settings on record: immediately after adding to hippocampal slice bath. Type of experiment: cell-based, rat. Here is the method:
Experiments were performed on transverse hippocampal splices taken from 5 to 6 week-old male rats. In all, 41 hippocampal slices and 10 additional hippocampi taken directly from intact animals (“freshly frozen” see below) were studied quantitatively. After halothane (3.5%) inhalation in the anesthetic box, the rats were perfused with 4° C. artificial cerebrospinal fluid (ACSF) (NaCl was substituted by 190 mM sucrose) intracardially for 1 minute (76-77).
After perfusion, the rats were decapitated and the hippocampi were dissected out and placed in cold (4° C.) artificial cerebrospinal fluid. Transverse slice (400 μm) were cut with a vibratome (Campden Vibraslice, model # 752) and placed on a nylon mesh in an incubation chamber. […] The slices were kept at 20° C. in oxygenated (95% O2, 5% CO2) artificial cerebrospinal fluid for 30 minute before stimulation. The gas mixture was also bubbled through the water bath in the chamber and vented over the chamber for >30 minute before the experiment started. The standard artificial cerebrospinal fluid comprised 130 mM NaCl, 3.5 mM KCl, 1.25 mM NaH2PO4, 2 mM MgSO4, 2 mM CaCl2, 20 mM NaHCO3, 2 mM ascorbic acid and 10 mM D-glucose.
For measuring zinc release with EnZin, (apoCA+ABDN), the slices were epi-illuminated with 420 nm light and imaged through both 530 nm and 700 nm band pass filters. […] The ABDN is fluorescent at 600 nm when free, but fluoresces at 560 nm when bound to the Zn+CA (“holo” CA). Thus, the CA is the zinc detector, and the ABDN is the ratiometric fluorescent reporter. A variety of CA with different zinc affinities for different zinc measurement ranges can be generated (78).
The ratio of the 520/700 nm images were then calculated (Optimus), giving a ratiometric image of zinc concentration. In this fluorescence system, the affinity of the EnZin is so high (Kd=[…]) that it can be treated as infinite. With a stoichiometric excess of EnZin, the percent occupancy of the EnZin by Zn^2+ can be used as the modulator of fluorescence intensity. […]

Experiment [3] concerns vesicular zinc in axonal boutons of the hippocampal formation. The settings on record: for vesicular zinc staining of boutons (qualitative): TSQ staining, 2 hr after infusion, hippocampal formation.
Description: Adult Sprague-Dawley rats (male, 300-350 g) were anesthetized with halothane, and mounted in a stereotaxic instrument where a bone defect was opened after reflection of the scalp.
For measuring the normal concentration of vesicular zinc in the tissue after treatment with various nitric oxide generators, frozen tissue sections were cut in a closed-top cryostat at 30 μm (−14° C.). For whole brains, starting at 3.6 mm caudal to bregma, every 3rd section was saved until 5-10 sections were obtained. For tissue slices studied in vitro, every section was saved (typically 6-9 per brain slice). After cutting, the sections were thawed onto glass slides, dried, then stained with TSQ (80-82).
The sections were stained with TSQ, ((N-(6-methoxy-8-quinolyl)-para-1-toluenesulfonamide, Molecular Probes), as described previously (80) for fluorescence visualization of Zn^2+. Briefly, the frozen, unfixed sections were immersed in a solution of TSQ (4.5 μM) in 140 mM sodium barbital and 140 mM sodium acetate buffer (pH 10-10.5) for 60 seconds, rinsed for 60 seconds in normal saline (NaCl, 0.9%), then viewed and imaged in the microscope with no coverslip while still damp. A SPOT2 cooled CCD camera was used to capture the fluorescence images (10×n.a. 0.65) at 12 bit resolution for subsequent quantitation of zinc-TSQ fluorescence intensity. Control and treated tissues were always digitized in the same sitting to guard against sensitivity changes in the system.
Rats were anesthetized, a microsyringe and needle were lowered into the hippocampal formation or neocerebellar cortex by stereotaxis and then nitric oxide generators were infused into the tissue. After 120 minutes of survival, the rats were sacrificed and the brains were cut and stained to show the location and concentration of the weakly bound Zn^2+ that is normally sequestered in the presynaptic boutons, i.e., vesicular zinc. Zinc localization and quantification were determined by TSQ fluorescence staining.

pKd: −log10 of the molar value. Entries after “also recorded” stand apart in the source; their conditions may differ.

In the case of `NS(=O)(=O)c1ccc(NCCO)c2nonc12` [ABDN], the pKd (as a rule, the negative decadic logarithm of the Kd, by convention in mol/L) in experiment [1] was 4.35.
Consider `COC(=O)[C@@H](N)CCCNC(=N)N[N+](=O)[O-]` [L-NAME, N(6)-nitro-L-arginine methyl ester], for which the “number of zinc-positive neurons after excitotoxic insult (qualitative)” value (with zinc-positive neurons; in experiment [2] (blunt-trauma)) was “dramatically reduces” throughout. For the same compound, the “Zn^2+ release into extracellular fluid after OGD and reperfusion” value in the experiment on hippocampal slice was “almost completely blocked”. In experiment [2] (TBI plus hypoperfusion, prior administration), the “number of zinc-stained cells (qualitative)” value was “substantial reduction; also recorded: greatly reduces”. Besides, the “sparing in the number of zinc-injured (zinc-positive) neurons” value in experiment [2] (hilus) and in experiment [2] (hippocampal cortex (CA3)) was 50% in each case.
Take `CC(=O)N[C@H](C(=O)O)C(C)(C)SN=O` [SNAP, S-nitroso-N-acetyl-L-penicillamine]: the “Zn^2+ fluorescence in the slice bath / extracellular fluid” value in the experiment with hippocampal brain slice is reported as “rapid (within seconds) increase; also recorded: raised”.
As for `NCCCNCCCCN(CCCN)/[N+]([O-])=N/O` [Spermine NO, Spermine-NONOate], in the experiment with hippocampal brain slice, the “Zn^2+ fluorescence in the slice bath / extracellular fluid” value was “rapid (within seconds) increase”. The “vesicular zinc staining of boutons (qualitative)” value in experiment [3] is listed as “depletes zinc”. In addition, the “vesicular zinc in the hilus reduced compared to control” value in experiment [3] (quantitative microfluorimetric analysis, hilus, in vivo infusion) is “about 60%”.
For the compound `NCCCNCCCCNCCCN` [Spermine], the “Zn^2+ fluorescence in the slice bath / extracellular fluid” value with hippocampal brain slice was “no effect”. The “vesicular zinc staining of boutons (qualitative)” value in experiment [3] is “unaffected”.
